Patent publication EP0465716A1, “Optically active thiazetoquino-line-3-carboxylic acid compound, method for preparation thereof, and a pharmaceutical composition comprising the same” (priority 1990, dated 1992)
In brackets after ≈: the same amount, converted by molar mass.

How the values were obtained:
Format in all cases: cell-based
Enterobacter cloacae 963 = assay: MIC, twofold agar dilution method (standard laboratory strain); conditions: Enterobacter cloacae 963, Gram -; 10^6 cfu/ml; 18 hrs at 37 °C
Protocol: (§1) Overnight cultures in Mueller-Hinton broth were suspended by buffered saline gelatin. One loopful of the bacterial suspension (10⁶ or 10⁸ colony-forming units/ml) was incubated onto the plates containing test compounds. The plates were incubated for 18 hrs at 37 °C. The MIC was defined by the lowest concentration of the drug that inhibited visible growth of bacteria.

[1] = system: Escherichia coli NIHJ JC-2; assay: as above; conditions: NIHJJC2; Escherichia coli NIHJ JC-2, Gram -; 10^6 cfu/ml; 18 hrs at 37 °C
Protocol: as §1

[2] = system: Pseudomonas aeruginosa IFO 3445; assay: as above; conditions: IFO3445; Pseudomonas aeruginosa IFO 3445, Gram -; 10^6 cfu/ml; 18 hrs at 37 °C
Protocol: as §1

[3] = system: Serratia marcescens IAM 1184; assay: as above; conditions: IAM1184; Serratia marcescens IAM 1184, Gram -; 10^6 cfu/ml; 18 hrs at 37 °C
Protocol: as §1

[4] = system: Staphylococuss aureus FDA 209PJC-1; assay: as above; conditions: Staphylococuss aureus FDA 209PJC-1, Gram +; 10^6 cfu/ml; 18 hrs at 37 °C
Protocol: as §1

[5] = system: Klebsiella pneumoniae PCI-602; assay: as above; conditions: PCI602; Klebsiella pneumoniae PCI-602, Gram -; 10^6 cfu/ml; 18 hrs at 37 °C; read-out: MIC
Protocol: as §1, with “Minimum inhibitory concentrations (MIC) of test compounds were determined by the twofold agar dilution method (Chemotherapy, 29(1), 76(1981)). Overnight” for “Overnight”

[6] = system: Acinetobacter calcoaceticus HNR 904; assay: MIC, twofold agar dilution method (clinically isolated strain); conditions: HNR904; Acinetobacter calcoaceticus HNR 904, Gram -; 10^6 cfu/ml; 18 hrs at 37 °C
Protocol: as §1

[7] = system: Acinetobacter calcoaceticus HNR 916; assay: as above; conditions: HNR916; Acinetobacter calcoaceticus HNR 916, Gram -; 10^6 cfu/ml; 18 hrs at 37 °C
Protocol: as §1

[8] = system: Acinetobacter calcoaceticus HNR 939; assay: as above; conditions: HNR939; Acinetobacter calcoaceticus HNR 939, Gram -; 10^6 cfu/ml; 18 hrs at 37 °C
Protocol: as §1

[9] = system: Enterobacter cloacae HNR 1939; assay: as above; conditions: HNR1939; Enterobacter cloacae HNR 1939, Gram -; 10^6 cfu/ml; 18 hrs at 37 °C
Protocol: as §1

[10] = system: Enterobacter cloacae HNR 1941; assay: as above; conditions: HNR1941; Enterobacter cloacae HNR 1941, Gram -; 10^6 cfu/ml; 18 hrs at 37 °C
Protocol: as §1

[11] = system: Enterobacter cloacae HNR 1946; assay: as above; conditions: HNR1946; Enterobacter cloacae HNR 1946, Gram -; 10^6 cfu/ml; 18 hrs at 37 °C
Protocol: as §1

[12] = system: Enterococcus faecalis HPC 948; assay: as above; conditions: HPC948; Enterococcus faecalis HPC 948, Gram +; 10^6 cfu/ml; 18 hrs at 37 °C
Protocol: as §1

[13] = system: Enterococcus faecalis HPC 975; assay: as above; conditions: HPC975; Enterococcus faecalis HPC 975, Gram +; 10^6 cfu/ml; 18 hrs at 37 °C
Protocol: as §1

[14] = system: Enterococcus faecalis HPC 984; assay: as above; conditions: HPC984; Enterococcus faecalis HPC 984, Gram +; 10^6 cfu/ml; 18 hrs at 37 °C
Protocol: as §1

[15] = system: Klebsiella pneumoniae HNR 828; assay: as above; conditions: HNR828; Klebsiella pneumoniae HNR 828, Gram -; 10^6 cfu/ml; 18 hrs at 37 °C
Protocol: as §1

[16] = system: Klebsiella pneumoniae HNR 858; assay: as above; conditions: HNR858; Klebsiella pneumoniae HNR 858, Gram -; 10^6 cfu/ml; 18 hrs at 37 °C
Protocol: as §1

[17] = system: Klebsiella pneumoniae HNR 869; assay: as above; conditions: HNR869; Klebsiella pneumoniae HNR 869, Gram -; 10^6 cfu/ml; 18 hrs at 37 °C
Protocol: as §1

[18] = system: Pseudomonas aeruginosa HNR 1472; assay: as above; conditions: HNR1472; Pseudomonas aeruginosa HNR 1472, Gram -; 10^6 cfu/ml; 18 hrs at 37 °C
Protocol: as §1

[19] = system: Pseudomonas aeruginosa HNR 1489; assay: as above; conditions: HNR1489; Pseudomonas aeruginosa HNR 1489, Gram -; 10^6 cfu/ml; 18 hrs at 37 °C
Protocol: as §1

[20] = system: Pseudomonas aeruginosa HNR 1537; assay: as above; conditions: HNR1537; Pseudomonas aeruginosa HNR 1537, Gram -; 10^6 cfu/ml; 18 hrs at 37 °C
Protocol: as §1

[21] = system: Serratia marcescens HNR 1544; assay: as above; conditions: HNR1544; Serratia marcescens HNR 1544, Gram -; 10^6 cfu/ml; 18 hrs at 37 °C
Protocol: as §1

[22] = system: Serratia marcescens HNR 1767; assay: as above; conditions: HNR1767; Serratia marcescens HNR 1767, Gram -; 10^6 cfu/ml; 18 hrs at 37 °C
Protocol: as §1

[23] = system: Serratia marcescens HNR 1792; assay: as above; conditions: HNR1792; Serratia marcescens HNR 1792, Gram -; 10^6 cfu/ml; 18 hrs at 37 °C
Protocol: as §1

[24] = system: Staphylococcuss aureus HPC 292; assay: as above; conditions: Staphylococcuss aureus HPC 292, Gram +; 10^6 cfu/ml; 18 hrs at 37 °C
Protocol: as §1

[25] = system: Staphylococcuss aureus HPC 308; assay: as above; conditions: Staphylococcuss aureus HPC 308, Gram +; 10^6 cfu/ml; 18 hrs at 37 °C
Protocol: as §1

[26] = system: Staphylococcuss aureus HPC 527; assay: as above; conditions: Staphylococcuss aureus HPC 527, Gram +; 10^6 cfu/ml; 18 hrs at 37 °C
Protocol: as §1

Row | MIC (Enterobacter cloacae 963) [µg/mL] | MIC [1] [µg/mL] | MIC [2] [µg/mL] | MIC [3] [µg/mL] | MIC [4] [µg/mL] | MIC [5] [µg/mL] | MIC [6] [µg/mL] | MIC [7] [µg/mL] | MIC [8] [µg/mL] | MIC [9] [µg/mL] | MIC [10] [µg/mL] | MIC [11] [µg/mL] | MIC [12] [µg/mL] | MIC [13] [µg/mL] | MIC [14] [µg/mL] | MIC [15] [µg/mL] | MIC [16] [µg/mL] | MIC [17] [µg/mL] | MIC [18] [µg/mL] | MIC [19] [µg/mL] | Compound | further results
1 | 0.05 (≈ 0.13 µM) | 0.025 (≈ 0.0651 µM) | 0.1 (≈ 0.261 µM) | 0.05 (≈ 0.13 µM) | 0.025 (≈ 0.0651 µM) | 0.025 (≈ 0.0651 µM) | 12.5 (≈ 32.6 µM) | 0.1 (≈ 0.261 µM) | 0.78 (≈ 2.03 µM) | 0.1 (≈ 0.261 µM) | 1.56 (≈ 4.06 µM) | 0.2 (≈ 0.521 µM) | 0.39 (≈ 1.02 µM) | 1.56 (≈ 4.06 µM) | 0.1 (≈ 0.261 µM) | 1.56 (≈ 4.06 µM) | 0.2 (≈ 0.521 µM) | 0.78 (≈ 2.03 µM) | 3.13 (≈ 8.15 µM) | 0.2 (≈ 0.521 µM) | CC1Sc2c(C(=O)O)c(=O)c3cc(F)c(N4CC[C@@H](N)C4)c(Cl)c3n21 (single isomer, unassigned) [Example 17] | MIC [20]: 6.25 µg/mL (≈ 16.3 µM); MIC [21]: 0.05 µg/mL (≈ 0.13 µM); MIC [22]: 6.25 µg/mL (≈ 16.3 µM); MIC [23]: 1.56 µg/mL (≈ 4.06 µM); MIC [24]: 1.56 µg/mL (≈ 4.06 µM); MIC [25]: 0.78 µg/mL (≈ 2.03 µM); MIC [26]: 0.05 µg/mL (≈ 0.13 µM)
2 | 0.1 (≈ 0.283 µM) | 0.1 (≈ 0.283 µM) | 0.2 (≈ 0.566 µM) | 0.2 (≈ 0.566 µM) | 0.1 (≈ 0.283 µM) | 0.05 (≈ 0.142 µM) | > 100 | 0.39 (≈ 1.1 µM) | > 100 | 0.78 (≈ 2.21 µM) | > 100 | 1.56 (≈ 4.41 µM) | 50 (≈ 142 µM) | > 100 | 0.78 (≈ 2.21 µM) | 50 (≈ 142 µM) | 0.78 (≈ 2.21 µM) | 50 (≈ 142 µM) | > 100 | 0.39 (≈ 1.1 µM) | NC1CCN(c2c(F)cc3c(=O)c(C(=O)O)c4n(c3c2F)CS4)C1 (stereo not drawn) [Ref. Drug E, 7-(3-amino-1-pyrrolidinyl)-6,8-difluoro-4-oxo-1H,4H-[1,3]thiazeto[3,2-a]quinoline-3-carboxylic acid] | MIC [20]: > 100 µg/mL; MIC [21]: 0.1 µg/mL (≈ 0.283 µM); MIC [22]: > 100 µg/mL; MIC [23]: > 100 µg/mL; MIC [24]: > 100 µg/mL; MIC [25]: 100 µg/mL (≈ 283 µM); MIC [26]: 0.2 µg/mL (≈ 0.566 µM)
